Earlier results as cited in patent US20080176893A1, “Formulation of a Thienopyridine Platelet Aggregation Inhibitor” (ELI LILLY AND COMPANY, priority 2005, published 2008).

CC(=O)Oc1cc2c(s1)CCN(C(C(=O)C1CC1)c1ccccc1F)C2.Cl (stereo not drawn) [Prasugrel, 2-Acetoxy-5-(α-cycloprpylcarbonyl-2-fluorobenzyl)-4,5,6,7-tetrahydrothieno[3,2-c]pyridine]
degradation on prolonged exposure to air and moisture: some degradation
